The results in this text go back to PubChem BioAssay (NCI).

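96-well plates; 48 h exposure; 5 concentrations. Endpoints by linear interpolation between flanking doses. Not reached: highest tested concentration assigned. Definition used: TGI = concentration required for complete inhibition of growth.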

Among the test systems are CAKI-1 renal; EKVX NSCLC; HOP-62 NSCLC; NCI-H23 lung; NCI-H460 lung; OVCAR-3 ovarian; SF-539 CNS; SK-MEL-2 melanoma; SNB-19 CNS.
Common to all, as to assay: DTP human tumour cell line panel, 48 h

Consider `Cc1cc(S(=O)(=O)O)c(NC(=O)C(=O)Cc2cc(=O)oc3cc(O)ccc23)cc1Cl`, for which the TGI in the experiment with CAKI-1 renal, in the experiment on EKVX NSCLC, with HOP-62 NSCLC, in the experiment with NCI-H23 lung, in the experiment on NCI-H460 lung and with OVCAR-3 ovarian was over 100 µM in each case. Further, the TGI in the experiment with SF-539 CNS, in the experiment on SK-MEL-2 melanoma and in the experiment with SNB-19 CNS was over 100 µM in each case.
Regarding `CCC1CCc2c(c(=O)oc3c2cc(OC)c2cccc(OC)c23)C1` (configuration not stated), the total growth inhibition concentration (TGI) with CAKI-1 renal, in the experiment with EKVX NSCLC, in the experiment on HOP-62 NSCLC, with NCI-H23 lung, with NCI-H460 lung and with SF-539 CNS was over 100 µM throughout. For the same compound, the TGI in the experiment with SK-MEL-2 melanoma and in the experiment on SNB-19 CNS was over 100 µM each time.
Turning to `O=C1OCC2C1C1c3ccccc3C(O)c3ccccc3C21` (configuration not stated), the TGI with CAKI-1 renal, in the experiment on EKVX NSCLC, with HOP-62 NSCLC, in the experiment on NCI-H23 lung, in the experiment with NCI-H460 lung and with OVCAR-3 ovarian was over 100 µM throughout. In addition, the concentration for total growth inhibition (TGI) in the experiment on SF-539 CNS and in the experiment with SK-MEL-2 melanoma was over 100 µM each time.
Consider `CC(C)C(=O)NS(=O)(=O)c1ccccc1`, for which the TGI in the experiment with CAKI-1 renal, with EKVX NSCLC, in the experiment with HOP-62 NSCLC, in the experiment on NCI-H23 lung, in the experiment with NCI-H460 lung and in the experiment with OVCAR-3 ovarian was over 100 µM each time. In addition, the TGI in the experiment on SF-539 CNS, in the experiment on SK-MEL-2 melanoma and in the experiment with SNB-19 CNS was over 100 µM in each case.
Consider `Cc1c(/C=N/NC(=O)c2ccc(Cl)cc2)c(=O)n(-c2ccccc2)n1C`, for which the concentration for total growth inhibition (TGI) in the experiment with EKVX NSCLC, with HOP-62 NSCLC, in the experiment with NCI-H23 lung, with NCI-H460 lung, in the experiment on OVCAR-3 ovarian and in the experiment on SF-539 CNS was over 100 µM throughout. Also, the TGI with SK-MEL-2 melanoma and in the experiment with SNB-19 CNS was over 100 µM each time.
On to `O=P1(c2ccccc2)CCCCC1`, for which the TGI in the experiment on EKVX NSCLC, with HOP-62 NSCLC, with NCI-H23 lung, with NCI-H460 lung, in the experiment on OVCAR-3 ovarian and with SF-539 CNS was over 100 µM each time. Moreover, the TGI in the experiment on SK-MEL-2 melanoma and with SNB-19 CNS was over 100 µM throughout.
On to `CC(C)C(=O)Nc1nc2c(ncn2C2OC(CO)C(O)C2O)c(=O)[nH]1` (configuration not stated), for which the total growth inhibition concentration (TGI) in the experiment on CAKI-1 renal, in the experiment on EKVX NSCLC, in the experiment on HOP-62 NSCLC, with NCI-H23 lung, in the experiment on NCI-H460 lung and in the experiment with OVCAR-3 ovarian was over 100 µM each time. Further, the total growth inhibition concentration (TGI) with SF-539 CNS and in the experiment on SK-MEL-2 melanoma was over 100 µM throughout.
As for `O=S(=O)(c1ccccc1)C1CN2OC1(S(=O)(=O)c1ccccc1)CC2c1ccc(Br)cc1` (configuration not stated), the TGI with CAKI-1 renal, in the experiment with EKVX NSCLC, in the experiment with HOP-62 NSCLC, in the experiment on NCI-H23 lung, in the experiment on NCI-H460 lung and in the experiment with OVCAR-3 ovarian was over 100 µM in each case. Moreover, the TGI in the experiment with SF-539 CNS was 89.9 µM; with SK-MEL-2 melanoma, over 100 µM; in the experiment on SNB-19 CNS, over 100 µM.
With `O=[N+]([O-])c1ccc(N2N=C(c3ccc(NCc4nc5ccccc5[nH]4)cc3)CC2c2ccco2)cc1` (configuration not stated), the TGI in the experiment on CAKI-1 renal is over 100 µM; with HOP-62 NSCLC, over 100 µM; in the experiment with NCI-H23 lung it was 55.9 µM; in the experiment with NCI-H460 lung it was over 100 µM; with OVCAR-3 ovarian, 80.2 µM; in the experiment with SF-539 CNS, 84.4 µM. In the experiment with SNB-19 CNS, this compound displayed a total growth inhibition concentration (TGI) of over 100 µM.
On to `COc1cc2c(OC)cc1CSCc1sc(C)c(c1Br)CSC2`, for which the concentration for total growth inhibition (TGI) with CAKI-1 renal, with EKVX NSCLC, in the experiment on HOP-62 NSCLC, with NCI-H23 lung, with NCI-H460 lung and in the experiment with OVCAR-3 ovarian was over 100 µM each time. Also, the TGI in the experiment with SF-539 CNS, with SK-MEL-2 melanoma and in the experiment with SNB-19 CNS was over 100 µM in each case.
Take `CC1COC(C)(C)P(=O)(c2ccccc2)C1` (configuration not stated): the total growth inhibition concentration (TGI) in the experiment with EKVX NSCLC, with HOP-62 NSCLC, with NCI-H23 lung, in the experiment on NCI-H460 lung, with OVCAR-3 ovarian and in the experiment on SF-539 CNS was over 100 µM in each case. Moreover, the TGI in the experiment with SK-MEL-2 melanoma and in the experiment with SNB-19 CNS was over 100 µM throughout.
`CCOP(=O)(OCC)OC1C=CC2CCC1C2` (configuration not stated): the total growth inhibition concentration (TGI) in the experiment with CAKI-1 renal, with EKVX NSCLC, in the experiment on HOP-62 NSCLC, in the experiment on NCI-H23 lung, in the experiment on NCI-H460 lung and in the experiment with OVCAR-3 ovarian was over 100 µM throughout. In addition, the TGI in the experiment on SF-539 CNS, in the experiment with SK-MEL-2 melanoma and with SNB-19 CNS was over 100 µM each time.
Turning to `COC1(OC)CC2C(=O)N(Cc3ccccc3)C1C=C2S(=O)(=O)c1ccccc1` (configuration not stated), the TGI in the experiment on EKVX NSCLC is 33.1 µM; in the experiment with HOP-62 NSCLC, over 100 µM; with NCI-H23 lung it was 38.1 µM; in the experiment on NCI-H460 lung it was 38.6 µM; in the experiment on OVCAR-3 ovarian, 28 µM; in the experiment on SF-539 CNS, 32.7 µM. Besides, the TGI in the experiment on SNB-19 CNS is 54.7 µM.
Take `Cc1ccc(S(=O)(=O)c2ccc(N)cc2)cc1`: the total growth inhibition concentration (TGI) in the experiment on CAKI-1 renal, in the experiment on EKVX NSCLC, with HOP-62 NSCLC, in the experiment on NCI-H23 lung, with NCI-H460 lung and in the experiment with OVCAR-3 ovarian was over 100 µM in each case. The TGI with SF-539 CNS and in the experiment with SK-MEL-2 melanoma was over 100 µM each time.
As for `Cc1cc(NS(=O)(=O)c2ccc(Nc3c4ccccc4nc4c(C(=O)N5CCN(CCO)CC5)ccc(Cl)c34)cc2)no1`, the TGI in the experiment on CAKI-1 renal, in the experiment with HOP-62 NSCLC, in the experiment on NCI-H23 lung, with NCI-H460 lung, in the experiment on OVCAR-3 ovarian and in the experiment on SF-539 CNS was over 100 µM throughout. Also, the total growth inhibition concentration (TGI) in the experiment on SK-MEL-2 melanoma and in the experiment on SNB-19 CNS was over 100 µM in each case.
With `c1ccc2nc3c(nc2c1)sc1ccccc13`, the concentration for total growth inhibition (TGI) with CAKI-1 renal was 30.2 µM; in the experiment on EKVX NSCLC it was 96.2 µM; with HOP-62 NSCLC it was 73.6 µM; with NCI-H23 lung it was 71.1 µM; in the experiment on NCI-H460 lung it was 43.6 µM; with OVCAR-3 ovarian, over 100 µM. Further, the total growth inhibition concentration (TGI) in the experiment on SF-539 CNS is 30.9 µM; in the experiment on SK-MEL-2 melanoma it was over 100 µM; in the experiment on SNB-19 CNS, 42.2 µM.

What is called TGI is the concentration at which net growth stops. High values mean less potent growth arrest, low ones more potent growth arrest.
